Like-named read-outs stand apart in the source and are kept apart here.
Key:
Assay in all cases: Colony formation (CFU) assay
Assay type in all cases: cell-based
BT474 = conditions: Homo sapiens, BT-474; BT474, breast
Protocol: (§1) In vitro experiments were conducted using the colony formation unit (CFU) assay on various cell lines. The CFU assay involved first establishing what cell plating density enabled the development of clearly interspersed colonies on a six-well plate when left to grow for around 14 days. […] Media was changed on day 8 containing appropriate concentrations of DMSO, USP1 inhibitor, Niraparib, or Olaparib. At or around day 14 when clearly interspersed colonies were visible in the DMSO treated wells, the cells were fixed and stained using 0.1% crystal violet in 10% ethanol for 20 minutes at room temperature. The plates were imaged then the amount of crystal violet stain in each well was quantified by extracting the crystal violet into 10% acetic acid and the absorbance measured at 565 nm.
(§2) IC50 values were calculated by fitting a two-parameter hill equation to the dose-response measurements. Non-linear-least-squares was used to find parameter values that minimize the squared error of the model fit to measured dose response. Non-linear-least-squares estimation was performed using the minpack.lm R package, version 1.2-1. Bliss synergy scores were calculated using the synergyfinder R package version 1.6.1.

HOS = conditions: Homo sapiens, bone
Protocol: as §1, §2

HBCx6 = conditions: HBCx6, breast
Protocol: as §1, §2

HT115 = system: HT115
Protocol: as §1, §2

MDAMB436 = conditions: Homo sapiens, MDA-MB-436, MDAMB436, breast
Protocol: as §1, §2

COV362 = system: COV362
Protocol: as §1, §2

143B = conditions: Homo sapiens, bone
Protocol: as §1, §2

SKES1 = conditions: Homo sapiens, SK-ES1; SKES1, bone
Protocol: as §1, §2

HS578T = conditions: Homo sapiens, Hs-578T, breast
Protocol: as §1, §2

RKO = conditions: Homo sapiens, colon
Protocol: as §1, §2

ASPC1 = conditions: Homo sapiens; ASPC1, pancreas
Protocol: as §1, §2

KURAMOCHI = conditions: ovary
Protocol: as §1, §2

CCK81 = conditions: CCK81, colon
Protocol: as §1, §2

SJSA1 = conditions: Homo sapiens, SJSA-1; SJSA1, bone
Protocol: as §1, §2

TE5 = conditions: Homo sapiens, TE-5; TE5, esophagus
Protocol: as §1, §2

SW948 = conditions: Homo sapiens; SW948, colon
Protocol: as §1, §2

HSC2 = conditions: Homo sapiens, HSC-2; HSC2, head and neck
Protocol: as §1, §2

OVK18 = conditions: OVK18, ovary
Protocol: as §1, §2

HS888T = conditions: bone
Protocol: as §1, §2

MSTO211H = conditions: Homo sapiens, MSTO-211H
Protocol: as §1, §2

BICR22 = conditions: BICR22, head and neck
Protocol: as §1, §2

YD38 = conditions: YD38, head and neck
Protocol: as §1, §2

HPAC = conditions: Homo sapiens
Protocol: as §1, §2

HCC1806 = conditions: Homo sapiens, HCC1806, breast
Protocol: as §1, §2

647V = conditions: Homo sapiens, bladder
Protocol: as §1, §2

SNU1076 = conditions: SNU1076, head and neck
Protocol: as §1, §2

HCC1500 = conditions: HCC1500, breast
Protocol: as §1, §2

CW2 = conditions: Homo sapiens, CW-2, CW2, colon
Protocol: as §1, §2

KU1919 = conditions: Homo sapiens, KU-19-19; KU1919, bladder
Protocol: as §1, §2

NCIH520 = conditions: Homo sapiens, NCI-H520, NCIH520, lung
Protocol: as §1, §2

KYSE410 = conditions: Homo sapiens, KYSE-410; KYSE410, esophagus
Protocol: as §1, §2

SKMEL24 = conditions: Homo sapiens, SK-MEL-24; SKMEL24, skin
Protocol: as §1, §2

UWB1289BRCA1 = conditions: UWB1289BRCA1, ovary
Protocol: as §1, §2

HCT116 = conditions: Homo sapiens, HCT-116, HCT116, colon
Protocol: as §1, §2

RERFLCAI = conditions: lung
Protocol: as §1, §2

TE11 = conditions: Homo sapiens, TE-11, TE11, esophagus
Protocol: as §1, §2

KYSE270 = conditions: Homo sapiens, KYSE-270; KYSE270, esophagus
Protocol: as §1, §2

NC(=O)c1cccc2cn(-c3ccc([C@@H]4CCCNC4)cc3)nc12 [Niraparib, niraparib, reference compound]
IC50 (BT474): > 300 nM | IC50 (HOS): > 300 nM | IC50 (HBCx6): 30.4 nM | IC50 (HT115; HT115): 15.6 nM | IC50 (MDAMB436): 4.73 nM | activity as single agents (COV362; COV362): modest activity | IC50 (COV362; COV362, ovary, read-out: IC50): 177 nM | IC50 (143B): > 300 nM | IC50 (SKES1): 23.6 nM | IC50 (HS578T): > 300 nM | IC50 (RKO): > 300 nM | IC50 (ASPC1): > 300 nM | IC50 (KURAMOCHI): > 300 nM | IC50 (CCK81): > 300 nM | IC50 (SJSA1): > 300 nM | IC50 (TE5): > 300 nM | IC50 (SW948): > 300 nM | IC50 (HSC2): > 300 nM | IC50 (OVK18): > 300 nM | IC50 (HS888T): > 300 nM | IC50 (MSTO211H; lung): > 300 nM | IC50 (BICR22): > 300 nM | IC50 (YD38): > 300 nM | IC50 (HPAC; pancreas): > 300 nM | IC50 (HCC1806): 62.9 nM | IC50 (647V): 96.7 nM | IC50 (SNU1076): > 300 nM | IC50 (HCC1500): 61.1 nM | IC50 (CW2): > 300 nM | IC50 (KU1919): 181 nM | IC50 (NCIH520): > 300 nM | IC50 (KYSE410): > 300 nM | IC50 (SKMEL24): > 300 nM | IC50 (UWB1289BRCA1): 186 nM | IC50 (HCT116): > 300 nM | IC50 (RERFLCAI): > 300 nM | IC50 (TE11): 176 nM | IC50 (KYSE270): 16.9 nM

COc1ncnc(C2CC2)c1-c1ncc2cnn(Cc3ccc(-c4nc(C(F)(F)F)cn4C(C)C)cc3)c2n1 [Formula I, 6-(4-cyclopropyl-6-methoxypyrimidin-5-yl)-1-(4-(1-isopropyl-4-(trifluoromethyl)-1H-imidazol-2-yl)benzyl)-1H-pyrazolo[3,4-d]pyrimidine]
IC50 (MDAMB436; Table 2): 4.5 nM | IC50 (COV362; Table 2, COV362, ovary, read-out: IC50): 203 nM | IC50 (MSTO211H; Table 2, lung): > 316 nM | IC50 (HPAC; Table 2, pancreas): > 316 nM | IC50 (HCC1806; Table 2): 62 nM | IC50 (CW2; Table 2): 67 nM | IC50 (NCIH520; Table 2): > 316 nM | IC50 (UWB1289BRCA1; Table 2): 113 nM | IC50 (HCT116; Table 2): > 316 nM | IC50 (TE11; Table 2): > 316 nM

COc1ncnc(C2CC2)c1-c1ncc2cnn(Cc3ccc(-c4nc(C(F)(F)F)cn4C)cc3)c2n1 [Formula II, 6-(4-cyclopropyl-6-methoxypyrimidin-5-yl)-1-(4-(1-methyl-4-(trifluoromethyl)-1H-imidazol-2-yl)benzyl)-1H-pyrazolo[3,4-d]pyrimidine]
IC50 (BT474): > 300 nM | IC50 (HOS): > 300 nM | IC50 (HBCx6): > 300 nM | IC50 (HT115; HT115, colon, read-out: IC50): 150 nM | IC50 (MDAMB436): 6.46 nM | IC50 (COV362; COV362): > 300 nM | activity as single agents (COV362; COV362): modest activity | IC50 (143B): > 300 nM | IC50 (SKES1): > 300 nM | IC50 (HS578T): > 300 nM | IC50 (RKO): > 300 nM | IC50 (ASPC1): > 300 nM | IC50 (KURAMOCHI): > 300 nM | IC50 (CCK81): > 300 nM | IC50 (SJSA1): > 300 nM | IC50 (TE5): > 300 nM | IC50 (SW948): > 300 nM | IC50 (HSC2): > 300 nM | IC50 (OVK18): > 300 nM | IC50 (HS888T): > 300 nM | IC50 (MSTO211H; lung): > 300 nM | IC50 (BICR22): > 300 nM | IC50 (YD38): > 300 nM | IC50 (HPAC; pancreas): > 300 nM | IC50 (HCC1806): 114 nM | IC50 (647V): 33.9 nM | IC50 (SNU1076): > 300 nM | IC50 (HCC1500): > 300 nM | IC50 (CW2): > 300 nM | IC50 (KU1919): 25 nM | IC50 (NCIH520): > 300 nM | IC50 (KYSE410): > 300 nM | IC50 (SKMEL24): > 300 nM | IC50 (UWB1289BRCA1): 139 nM | IC50 (HCT116): 110 nM | IC50 (RERFLCAI): > 300 nM | IC50 (TE11): 134 nM | IC50 (KYSE270): > 300 nM
